Data published in patent US20190352341A1, “MODIFIED PEPTIDES AND THEIR USE FOR TREATING SYSTEMIC LUPUS ERYTHEMATOSUS” (IMMUPHARMA FRANCE SA, priority 2018, published 2019).
Where “and” joins values, the source holds several entries; their conditions need not be identical. Equal entries are not always repeated. Numbered stars: 1 amine (or outer) side, 2 acyl side, 3 side chain; on linkers, the order of the positions; unused ones are H or OH. Square brackets hold non-standard residues; d marks the D form. Peptide text beside a SMILES is read from it. ξ: configuration not given here. X1 = CSCC[C@H](NC(=N)[C@H](Cc1c[nH]cn1)N[*:1])C(=O)[*:2]; pS = N[C@@H](COP(=O)(O)O)C(=O)O; Ile(3ξ) = CCC(C)[C@H](N)C(=O)O

Legend:
Balb/c mice = experiment: 31-day HDM-induced asthma model, BAL cells; assay type: in vivo, mouse; settings: for B cells / DCs / Eosinophils / Macrophages / Neutrophils / T cells / Total cells: BAL, HDM-sensitized, P140 i.v. 4 mg/kg day 25, individual mice
Protocol: The aim of this study was to evaluate the effect of the P140 phosphopeptide administered systemically (intravenously) in a 31-day model of HDM-induced asthma in mice. The P140 phosphopeptide was solubilized in sterile water (Braun) and 10× concentrate sterile saline was added to adjust osmolarity to 300 mosm. Osmolarity was controlled with a micro osmometer (Löser, type 15) and validated (303 mosm). The P140 phosphopeptide was used in vivo at the dose of 4 mg/kg by intravenous (i.v.) routes. Control animals received equivalent volumes (2 ml/kg) of saline (Table 8).
Nine-week-old male Balb/c mice were sensitized by intranasal (i.n.) administration of HDM extract (Stallergenes): 1 μg in 25 μl saline on days 0, 1, 2, 3, 4, and 10 μg on days 14 and 21. Mice were challenged by i.n. administration of HDM (1 μg) and/or saline on days 28, 29 and 30. Mice were treated by i.v. injection (2 ml/kg) of P140 or solvent on day 25 (see FIG. 14).
BAL was performed after airway responsiveness measurement twenty-four hours after HDM challenge as described (Daubeuf et al. 2012). Mice were anaesthetized IP (Ketamine 150 mg/kg—Xylasine 10 mg/kg). Blood was collected from the heart, centrifuged at 10,000 g for 2 min and serum stored at −20° C.
After semi-excision of the trachea, a plastic cannula was inserted, and airspace washed with 0.5 ml of 0.9% NaCl injected with a 1 ml syringe. This procedure was performed 10 times. The initial concentrated supernatant of the 2 first lavages (volume=2×0.5 ml administered, approximately 0.5 ml recovered) was collected for cytokine measurements. The remaining BAL fluid was centrifuged (300 g for 5 min, 4° C.), and cell pellets pooled. The cell pellet was suspended in 500 μl of 0.9% NaCl and used for total cell counts evaluated on a Muse® Cell Analyser (Millipore). Differential cell counts were assessed by flow cytometry (LSRII® cytometer, BD Bioscience). BAL cells were added with FCblock (0.5 μl, 553142, BD Bioscience) in a black microplate, incubated for 20 min at room temperature. Then, marker antibodies were added: CD11c-FITC (557400, BD bioscience), Gr-1-PeeFluor610 (61-5931-82, eBioscience), F4/80-PE (12-4801-82, eBioscience), CD11b-APC-Cy7 (557657, BD bioscience), CD45-AlexaFluor700 (103128, BioLegend), CD3-BV605 (564009, BD bioscience), CD19-PE-Cy7 (552854, BD bioscience). Antibodies were incubated with BAL cells for 30 min at room temperature before DAPI (5 μl, BD bioscience) addition, and flow cytometry was performed immediately.
All mice were sensitized to HDM on days 0, 1, 2, 3, 4, 14, 21, and challenged either with saline ([…]) or HDM (challenge with allergen). Results are presented as means±SEM. Differences between groups were tested for statistical significance using Student's t test for inflammatory cells and a two-way ANOVA followed by Bonferroni post-test for airway responses.

[1] = Stability of the peptides at 37° C. (HPLC peak area); assay type: physicochemical; settings: for 95% of stability (predicted): time to 95% from linear equation; for Stability (%) Linear equation: slope: y = stability %, x = days; for Stability (%): 10% mannitol
Protocol: The stability of the peptide SEQ ID NO: 1 in which the serine at position 10 is phosphorylated and the methionine at position 4 is oxydized (P140(MO)), and the peptide SEQ ID NO: 1 in which the serine at position 10 is phosphorylated (P140) was measured at 37° C., in a solution of 10% (v/v) mannitol. For each peptide, 3 concentrations have been tested: 200, 100 and 50 μg/mL.
At the indicated time, the integrity of P140 and P140(MO) peptides was measured in saline by high-performance liquid chromatography from the area of the peak corresponding to the intact peptide.
Stability is measured by using the HPLC peak surface.

[2] = saline-challenged (chronic asthma)
[3] = chronic asthma (saline-challenged), P140 4 mg/kg i.v. day 25
[4] = chronic asthma (saline-challenged), P140 4 mg/kg i.v. day 25, non-significant

## CCC(C)[C@H](NC(=O)[C@H](Cc1ccccc1)NC(=O)[C@H](C)NC(=O)[C@H](Cc1ccc(O)cc1)NC(=O)CNC(=O)[C@H](CCCNC(=N)N)NC(=O)[C@@H]1CCCN1C(=O)[C@H](CCCCN)NC(=O)CNC(=O)[C@H](COP(=O)(O)O)NC(=O)[C@H](CCCNC(=N)N)NC(=O)[C@H](CCCCN)NC(=O)[C@H](CO)NC(=O)[C@H](Cc1ccc(O)cc1)NC(=O)[C@@H](NC(=O)[C@H](CCSC)NC(=N)[C@H](Cc1c[nH]cn1)NC(=O)[C@@H](NC(=O)[C@@H](N)CCCNC(=N)N)C(C)CC)C(C)C)C(=O)N[C@@H](CCC(=O)O)C(=O)N[C@@H](Cc1ccc(O)cc1)C(=O)O (stereo partly shown) [Compound P140] (H-R[Ile(3ξ)][X1]VYSKR[pS]GKPRGYAF[Ile(3ξ)]EY-OH)
Balb/c mice; HDM-challenged (HDM + P140)
  B cells: 59 092 and 102 246 and 42 085 and 25 443 and 116 814 and 115 000 and 53 947 and 170 980
  DCs: 1 034 and 2 238 and 1 793 and 242 and 586 and 1 350 and 733 and 1 928
  Eosinophils: 955 824 and 1 404 942 and 636 065 and 342 046 and 1 283 190 and 1 036 803 and 538 210 and 1 010 666
  Macrophages: 58 705 and 118 771 and 314 326 and 125 002 and 34 364 and 38 709 and 29 121 and 73 491
  Neutrophils: 606 700 and 510 027 and 500 004 and 147 616 and 371 317 and 487 119 and 284 503 and 24 426
  T cells: 400 329 and 735 865 and 383 074 and 243 813 and 469 834 and 502 985 and 334 784 and 1 056 303
  Total cells: 2140000 and 2992000 and 2190000 and 1010000 and 2310000 and 2220000 and 1270000 and 2410000
Balb/c mice; [2]
  B cells: 2 297 and 44 668 and 22 879 and 11 101 and 7 660
  DCs: 0 and 484 and 461 and 319 and 160
  Eosinophils: 124 514 and 450 346 and 448 074 and 205 568 and 239 527
  Macrophages: 130 734 and 267 885 and 360 987 and 177 815 and 73 725
  Neutrophils: 2 584 and 35 734 and 23 986 and 34 836 and 2 394
  T cells: 57 711 and 323 623 and 294 011 and 208 439 and 86 810
  Total cells: 448000 and 1390000 and 1510000 and 815000 and 484000
Balb/c mice; HDM-challenged mice, vs solvent group
  Inflammatory cell recruitment in BAL: no effect
Balb/c mice; [3]
  Increase of number of macrophages in BAL vs solvent group: 4.5 fold
  Number of neutrophils in BAL, change vs solvent group: −71%
Balb/c mice; [4]
  Number of B cells in BAL, change vs solvent group: −40%
  Number of eosinophils in BAL, change vs solvent group: −25%
[1]; 50 μg/mL
  Stability (%) Linear equation: intercept: 98.299
  95% of stability (predicted): 1 months
  Stability (%) Linear equation: slope: y = −0.099x +
[1]; 100 μg/mL
  Stability (%) Linear equation: intercept: 99.25
  95% of stability (predicted): 2 months
  Stability (%) Linear equation: slope: y = −0.0612x +
[1]; 200 μg/mL
  Stability (%) Linear equation: intercept: 99.535
  95% of stability (predicted): 6 months
  Stability (%) Linear equation: slope: y = −0.0238x +
[1]; 50 μg/mL, day 0
  Stability (%): 100%
[1]; 50 μg/mL, day 20
  Stability (%): 95.5%
[1]; 50 μg/mL, day 40
  Stability (%): 93.2%
[1]; 50 μg/mL, day 60
  Stability (%): 91.5%
[1]; 50 μg/mL, day 80
  Stability (%): 90.3%
[1]; 50 μg/mL, day 100
  Stability (%): 89.6%
[1]; 100 μg/mL, day 0
  Stability (%): 100%
[1]; 100 μg/mL, day 20
  Stability (%): 97.5%
[1]; 100 μg/mL, day 40
  Stability (%): 96.2%
[1]; 100 μg/mL, day 60
  Stability (%): 95.5%
[1]; 100 μg/mL, day 80
  Stability (%): 94.5%
[1]; 100 μg/mL, day 100
  Stability (%): 93.4%
[1]; 200 μg/mL, day 0
  Stability (%): 100%
[1]; 200 μg/mL, day 20
  Stability (%): 98.7%
[1]; 200 μg/mL, day 40
  Stability (%): 98.5%
[1]; 200 μg/mL, day 60
  Stability (%): 97.9%
[1]; 200 μg/mL, day 80
  Stability (%): 97.6%
[1]; 200 μg/mL, day 100
  Stability (%): 97.4%
